Source: publication PMC8428568, “Discovery of re-purposed drugs that slow SARS-CoV-2 replication in human cells” (PLoS Pathogens, 2021)
Structures can show the parent of a compound that is named as a salt. Where two headings read alike, the source gives them in different places.

How the values were obtained:
recombinant NLuc = format: biochemical
[1] = test system: SARS-CoV-2-ΔOrf7a-NLuc virus; experiment: microbe, parasite or virus in culture; format: cell-based
[2] = recombinant NLuc activity relative to DMSO
[3] = recombinant NLuc, first read column
[4] = recombinant NLuc, fourth read column
[5] = recombinant NLuc, third read column

| SMILES | Relative Recombinant NLUC (recombinant NLuc; [2]) | Reads Counts per second (read 1) (recombinant NLuc; [3]) [Counts per second] | Reads Counts per second (read 4) (recombinant NLuc; [4]) [Counts per second] | Reads Counts per second (read 2) (recombinant NLuc; recombinant NLuc) [Counts per second] | Reads Counts per second (read 3) (recombinant NLuc; [5]) [Counts per second] | % activity in Vero 100PFU screen [1] [%] | activity at 10 µM ([1]; Severe acute respiratory syndrome coronavirus 2, Vero, 72 h, […], 1 = untreated, 0 = total inhibition, read-out: Mean relative luminescence (n=4)) [%] | Reads Counts per second (read 1) (recombinant NLuc) [Counts per second] | Reads Counts per second (read 3) (recombinant NLuc) [Counts per second] | Reads Counts per second (read 4) (recombinant NLuc) [Counts per second] | Relative Recombinant NLUC (recombinant NLuc) |
| --- | --- | --- | --- | --- | --- | --- | --- | --- | --- | --- | --- |
| C=CCNC1=C2C[C@@H](C)C[C@H](OC)[C@H](O)[C@@H](C)/C=C(\C)[C@H](OC(N)=O)[C@@H](OC)/C=C\C=C(/C)C(=O)NC(=CC1=O)C2=O [17-AAG (KOS953), 17-AAG] | 0.9121 | 339450 | 348179 | 347084 | 343744 | 209 |  |  |  |  |  |
| OB1OCc2cc(F)ccc21 [AN-2690] | 0.8709 | 329173 | 324160 | 329953 | 332892 | 171 |  |  |  |  |  |
| CC(C)c1cc(C(=O)N2Cc3ccc(CN4CCN(C)CC4)cc3C2)c(O)cc1O [AT13387] | 0.7978 | 289397 | 303901 | 302902 | 309451 | 191 |  |  |  |  |  |
| Cn1c(=O)cc(N2CCC[C@@H](N)C2)n(Cc2ccccc2C#N)c1=O [Alogliptin Benzoate] | 0.863 | 316906 | 323679 | 332493 | 331161 | 166 |  |  |  |  |  |
| Cc1[nH]cnc1CN1CCc2c(c3ccccc3n2C)C1=O [Alosetron Hydrochloride] | 0.8898 | 328498 | 339698 | 338671 | 337783 | 177 |  |  |  |  |  |
| C[C@H]1CN(C[C@H](Cc2ccccc2)C(=O)NCC(=O)O)CC[C@@]1(C)c1cccc(O)c1 [Alvimopan] | 0.9202 | 338215 | 352328 | 350063 | 350082 | 169 |  |  |  |  |  |
| CC[C@@H]1/C=C(\C)C[C@H](C)C[C@H](OC)[C@H]2O[C@@](O)(C(=O)C(=O)N3CCCC[C@H]3C(=O)O[C@H](/C(C)=C/[C@@H]3CC[C@@H](O)[C@H](OC)C3)[C@H](C)[C@@H](O)CC1=O)[C@H](C)C[C@@H]2OC [Ascomycin(FK 520), Ascomycin] | 0.8402 | 312887 | 314498 | 325360 | 316950 | 171 |  |  |  |  |  |
| O=C(O)[C@H]1O[C@@H](Oc2cc3oc(-c4ccccc4)cc(=O)c3c(O)c2O)[C@H](O)[C@@H](O)[C@@H]1O [Baicalin] | 0.9439 | 353023 | 357276 | 358945 | 357158 | 164 |  |  |  |  |  |
| CCS(=O)(=O)N1CC(CC#N)(n2cc(-c3ncnc4[nH]ccc34)cn2)C1 [Baricitinib phosphate] | 0.9095 | 337511 | 349331 | 341167 | 346435 | 199 |  |  |  |  |  |
| CC(C)(C)NC(=O)N[C@H](C(=O)N1C[C@H]2[C@@H]([C@H]1C(=O)NC(CC1CCC1)C(=O)C(N)=O)C2(C)C)C(C)(C)C (some centres unmarked) [Boceprevir] | 0.9177 | 341877 | 349417 | 348889 | 346623 | 178 |  |  |  |  |  |
| O=C(O)/C=C/c1ccc(O)c(O)c1 [Caffeic acid] | 1.054 | 390077 | 403178 |  | 399891 | 173 |  |  |  |  |  |
| O=C(O)COCCN1CCN(C(c2ccccc2)c2ccc(Cl)cc2)CC1 (centres unmarked) [Cetirizine] | 0.4486 | 170134 | 171706 |  | 168670 | 161 |  |  |  |  |  |
| O=c1c(-c2ccc(O)cc2)coc2cc(O)ccc12 [Daidzein] | 0.9154 | 339091 | 346126 |  | 350216 | 161 |  |  |  |  |  |
| CC(C)(C)c1ccc(C(=O)CCCN2CCC(OC(c3ccccc3)c3ccccc3)CC2)cc1 [Ebastine] |  | 323732 | 326603 |  | 324560 |  | 0.793 |  |  |  |  |
| O=S(=O)(O)c1cc(O)ccc1O [Ethamsylate] | 1.029 | 388357 | 386776 |  | 391647 | 167 |  |  |  |  |  |
| CNCCC(Oc1ccc(C(F)(F)F)cc1)c1ccccc1.Cl (centres unmarked) [Fluoxetine HCl] |  | 317425 | 307707 |  | 314163 | 2.12 |  |  |  |  |  |
| NC(=O)CC[C@H](N)C(=O)O [L-Glutamine] | 0.9419 | 349150 | 350740 |  | 361792 | 204 |  |  |  |  |  |
| N[C@@H](Cc1ccc(O)c(O)c1)C(=O)O [Levodopa] | 0.839 | 304150 | 316577 |  | 322065 | 233 |  |  |  |  |  |
| O=C([O-])CC(O)(CC(=O)[O-])C(=O)[O-].[Li+].[Li+].[Li+] [Lithium Citrate] | 0.9217 | 343238 | 343490 |  | 350985 | 205 |  |  |  |  |  |
| C[C@H](CCC(=O)O)[C@H]1CC[C@H]2[C@@H]3CC[C@@H]4C[C@H](O)CC[C@]4(C)[C@H]3CC[C@]12C [Lithocholic Acid] | 0.9342 | 350340 | 353302 |  | 350189 | 205 |  |  |  |  |  |
| Cc1cnc(NC(=O)C2=C(O)c3ccccc3S(=O)(=O)N2C)s1 [Meloxicam (Mobic), Meloxicam] | 0.824 | 308460 | 312953 |  | 309204 | 178 |  |  |  |  |  |
| C[N+]1(C)CCCC(OC(=O)C(O)(c2ccccc2)c2ccccc2)C1 (centres unmarked) [Mepenzolate Bromide] |  |  |  |  |  | 175 |  | 330221 | 339233 | 336213 | 0.8896 |
| C[C@](N)(Cc1ccc(O)c(O)c1)C(=O)O [Methyldopa] | 0.9666 | 361429 | 367357 |  | 364798 | 175 |  |  |  |  |  |
| NC(=O)c1ccc[n+]([C@@H]2O[C@H](COP(=O)([O-])OP(=O)(O)OC[C@H]3O[C@@H](n4cnc5c(N)ncnc54)[C@H](O)[C@@H]3O)[C@@H](O)[C@H]2O)c1 [NAD+] | 1.016 | 385544 | 376264 |  | 386401 | 164 |  |  |  |  |  |
| Cc1ccnc2c1NC(=O)c1cccnc1N2C1CC1 [Nevirapine] | 0.9932 | 371882 | 373316 |  | 379254 | 187 |  |  |  |  |  |
| COc1ccc2c(c1OC)C(=O)O[C@@H]2[C@H]1c2c(cc3c(c2OC)OCO3)CCN1C [Noscapine HCl] | 0.9502 | 358232 | 354994 |  | 362883 | 213 |  |  |  |  |  |
| CN(C(=O)CN(CCO)CC(=O)N(C)C(C)(C)Cc1ccccc1)C(C)(C)Cc1ccccc1 [Oxethazaine] | 0.8736 | 330534 | 321724 |  | 331517 | 167 |  |  |  |  |  |
